In article PMC5814754, “Quantitative, Wide-Spectrum Kinase Profiling in Live Cells for Assessing the Effect of Cellular ATP on Target Engagement” (Cell Chemical Biology, 2018):

Legend:
Test in all cases: NanoBRET single-dose fractional occupancy profiling of kinase/Nluc library in live HEK293 cells (Table S1)
Type in all cases: binding
Parameters in all cases: Occupancy, % Replicate 1 / Occupancy, % Replicate 2: unit of the concentration uncertain
[1] = biological target: 178 full-length kinases (Homo sapiens, UniProt O96013); details: PAK4, Nluc C, probe 5 at 1 (unit uncertain)
[2] = biological target: 178 full-length kinases (Homo sapiens, UniProt P09769); details: FGR, Nluc N, probe 6 at 0.5 (unit uncertain)
[3] = biological target: 178 full-length kinases (Homo sapiens, UniProt P22455); details: FGFR4, Nluc C, probe 5 at 1 (unit uncertain)
[4] = biological target: 178 full-length kinases (Homo sapiens, UniProt P36896); details: ACVR1B, Nluc C, probe 5 at 1 (unit uncertain)
[5] = biological target: 178 full-length kinases (Homo sapiens, UniProt P42681); details: TXK (NP_003319), Nluc orientation C, probe 6 at 0.1 (unit uncertain)
[6] = biological target: 178 full-length kinases (Homo sapiens, UniProt P42685); details: FRK, Nluc C, probe 6 at 0.5 (unit uncertain)
[7] = biological target: 178 full-length kinases (Homo sapiens, UniProt P51955); details: NEK2, Nluc N, probe 5 at 1 (unit uncertain)
[8] = biological target: 178 full-length kinases (Homo sapiens, UniProt P52333); details: JAK3, Nluc C, probe 5 at 1 (unit uncertain)
[9] = biological target: 178 full-length kinases (Homo sapiens, UniProt P53779); details: JNK3, Nluc C, probe 5 at 1 (unit uncertain)
[10] = biological target: 178 full-length kinases (Homo sapiens, UniProt P78368); details: CSNK1G2, Nluc N, probe 5 at 1 (unit uncertain)
[11] = biological target: 178 full-length kinases (Homo sapiens, UniProt Q02779); details: MAP3K10, Nluc N, probe 5 at 1 (unit uncertain)
[12] = biological target: 178 full-length kinases (Homo sapiens, UniProt Q13237); details: PRKG2, Nluc C, probe 5 at 1 (unit uncertain)
[13] = biological target: 178 full-length kinases (Homo sapiens, UniProt Q13705); details: ACVR2B, Nluc C, probe 2 at 1 (unit uncertain)
[14] = biological target: 178 full-length kinases (Homo sapiens, UniProt Q15831); details: STK11 (NP_000446), Nluc orientation N, probe 5 at 1 (unit uncertain)
[15] = biological target: 178 full-length kinases (Homo sapiens, UniProt Q7KZI7); details: MARK2, Nluc N, probe 5 at 1 (unit uncertain)
[16] = biological target: 178 full-length kinases (Homo sapiens, UniProt Q8IVW4); details: CDKL3, Nluc N, probe 1 at 0.05 (unit uncertain)
[17] = biological target: 178 full-length kinases (Homo sapiens, UniProt Q8TD19); details: NEK9, Nluc N, probe 5 at 1 (unit uncertain)
[18] = biological target: 178 full-length kinases (Homo sapiens, UniProt Q96L34); details: MARK4, Nluc N, probe 5 at 1 (unit uncertain)
[19] = biological target: 178 full-length kinases (Homo sapiens, UniProt Q96PY6); details: NEK1, Nluc N, probe 5 at 1 (unit uncertain)

Sequence of 178 full-length kinases (Homo sapiens, UniProt Q8IVW4) (Q8IVW4 whole entry): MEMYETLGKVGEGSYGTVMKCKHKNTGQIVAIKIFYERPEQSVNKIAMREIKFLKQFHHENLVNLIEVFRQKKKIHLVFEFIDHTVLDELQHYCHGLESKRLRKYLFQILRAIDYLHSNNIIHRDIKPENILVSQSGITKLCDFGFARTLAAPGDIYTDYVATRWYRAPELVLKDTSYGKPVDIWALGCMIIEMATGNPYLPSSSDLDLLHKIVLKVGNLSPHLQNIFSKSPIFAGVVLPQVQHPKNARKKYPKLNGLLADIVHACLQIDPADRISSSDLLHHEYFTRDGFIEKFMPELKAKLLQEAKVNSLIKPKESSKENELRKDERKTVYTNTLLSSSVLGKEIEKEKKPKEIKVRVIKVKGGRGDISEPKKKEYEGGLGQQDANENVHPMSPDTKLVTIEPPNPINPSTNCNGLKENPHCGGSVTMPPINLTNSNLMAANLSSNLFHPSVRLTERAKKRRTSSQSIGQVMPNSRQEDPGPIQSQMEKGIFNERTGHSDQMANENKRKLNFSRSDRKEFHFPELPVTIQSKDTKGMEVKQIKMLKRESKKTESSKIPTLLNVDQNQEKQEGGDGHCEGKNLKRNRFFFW
Sequence of 178 full-length kinases (Homo sapiens, UniProt P53779) (P53779 whole entry): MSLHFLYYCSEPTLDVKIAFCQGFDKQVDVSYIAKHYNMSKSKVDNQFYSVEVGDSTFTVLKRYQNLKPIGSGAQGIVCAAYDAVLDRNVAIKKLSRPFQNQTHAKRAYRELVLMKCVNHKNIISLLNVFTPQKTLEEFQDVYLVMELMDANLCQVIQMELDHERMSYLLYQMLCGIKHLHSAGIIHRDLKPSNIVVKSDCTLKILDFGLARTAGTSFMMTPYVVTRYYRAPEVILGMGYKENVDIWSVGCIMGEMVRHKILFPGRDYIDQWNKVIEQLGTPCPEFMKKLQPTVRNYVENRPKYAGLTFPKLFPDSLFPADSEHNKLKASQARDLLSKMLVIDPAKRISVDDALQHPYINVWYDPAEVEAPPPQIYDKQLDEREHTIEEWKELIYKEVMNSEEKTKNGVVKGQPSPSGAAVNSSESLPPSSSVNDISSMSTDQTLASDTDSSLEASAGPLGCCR
Sequence of 178 full-length kinases (Homo sapiens, UniProt P42681) (P42681 whole entry): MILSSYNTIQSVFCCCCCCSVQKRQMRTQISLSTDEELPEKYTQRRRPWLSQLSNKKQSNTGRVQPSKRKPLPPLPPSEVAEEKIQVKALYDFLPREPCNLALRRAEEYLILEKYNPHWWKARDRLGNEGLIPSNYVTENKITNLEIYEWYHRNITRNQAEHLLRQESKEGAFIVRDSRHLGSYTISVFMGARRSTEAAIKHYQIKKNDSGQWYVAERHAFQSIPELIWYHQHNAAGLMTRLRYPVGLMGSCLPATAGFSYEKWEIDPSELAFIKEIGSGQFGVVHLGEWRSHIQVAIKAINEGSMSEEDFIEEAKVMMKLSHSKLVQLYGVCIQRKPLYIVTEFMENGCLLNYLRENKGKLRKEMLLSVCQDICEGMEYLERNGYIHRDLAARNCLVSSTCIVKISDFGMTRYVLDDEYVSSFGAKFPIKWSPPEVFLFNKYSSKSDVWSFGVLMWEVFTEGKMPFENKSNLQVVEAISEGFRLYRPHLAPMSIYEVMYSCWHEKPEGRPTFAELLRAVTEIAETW
Sequence of 178 full-length kinases (Homo sapiens, UniProt Q15831) (Q15831 whole entry): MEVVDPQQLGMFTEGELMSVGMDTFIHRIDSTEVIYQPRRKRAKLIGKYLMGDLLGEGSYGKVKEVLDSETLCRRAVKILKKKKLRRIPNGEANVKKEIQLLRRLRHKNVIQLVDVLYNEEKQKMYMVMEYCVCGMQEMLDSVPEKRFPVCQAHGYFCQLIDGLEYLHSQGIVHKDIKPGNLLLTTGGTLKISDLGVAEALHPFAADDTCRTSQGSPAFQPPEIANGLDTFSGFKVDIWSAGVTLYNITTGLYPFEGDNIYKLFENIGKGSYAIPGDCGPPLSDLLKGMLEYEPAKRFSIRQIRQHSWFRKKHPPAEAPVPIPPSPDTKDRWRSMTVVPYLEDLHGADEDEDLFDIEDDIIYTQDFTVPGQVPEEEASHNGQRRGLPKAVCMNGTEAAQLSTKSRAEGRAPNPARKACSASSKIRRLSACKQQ
Sequence of 178 full-length kinases (Homo sapiens, UniProt Q02779) (Q02779 whole entry): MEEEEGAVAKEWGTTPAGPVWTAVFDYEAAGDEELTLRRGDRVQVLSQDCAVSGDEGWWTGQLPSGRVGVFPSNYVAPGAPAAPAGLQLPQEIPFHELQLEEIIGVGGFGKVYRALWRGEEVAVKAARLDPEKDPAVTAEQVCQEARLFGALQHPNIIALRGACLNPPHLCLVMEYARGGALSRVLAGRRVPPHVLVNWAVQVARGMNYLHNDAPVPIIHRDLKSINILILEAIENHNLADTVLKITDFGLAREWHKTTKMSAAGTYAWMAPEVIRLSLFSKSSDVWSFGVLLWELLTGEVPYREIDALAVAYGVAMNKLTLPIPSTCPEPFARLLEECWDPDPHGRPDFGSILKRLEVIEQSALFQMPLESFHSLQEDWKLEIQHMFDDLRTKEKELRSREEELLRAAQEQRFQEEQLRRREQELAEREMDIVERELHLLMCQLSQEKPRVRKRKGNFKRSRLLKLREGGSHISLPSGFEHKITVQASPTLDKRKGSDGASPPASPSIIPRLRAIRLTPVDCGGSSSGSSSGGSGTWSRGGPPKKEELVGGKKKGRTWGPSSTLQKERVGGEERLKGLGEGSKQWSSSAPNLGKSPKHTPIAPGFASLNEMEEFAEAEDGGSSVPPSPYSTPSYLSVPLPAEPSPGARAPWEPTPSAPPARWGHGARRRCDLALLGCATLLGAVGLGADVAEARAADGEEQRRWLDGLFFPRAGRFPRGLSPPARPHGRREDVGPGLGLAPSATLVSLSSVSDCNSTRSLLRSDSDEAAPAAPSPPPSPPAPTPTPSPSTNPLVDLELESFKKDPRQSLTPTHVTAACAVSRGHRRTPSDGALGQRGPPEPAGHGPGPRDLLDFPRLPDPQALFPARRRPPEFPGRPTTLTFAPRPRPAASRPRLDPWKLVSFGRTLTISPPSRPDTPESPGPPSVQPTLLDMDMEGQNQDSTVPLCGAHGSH
Sequence of 178 full-length kinases (Homo sapiens, UniProt Q96L34) (Q96L34 whole entry): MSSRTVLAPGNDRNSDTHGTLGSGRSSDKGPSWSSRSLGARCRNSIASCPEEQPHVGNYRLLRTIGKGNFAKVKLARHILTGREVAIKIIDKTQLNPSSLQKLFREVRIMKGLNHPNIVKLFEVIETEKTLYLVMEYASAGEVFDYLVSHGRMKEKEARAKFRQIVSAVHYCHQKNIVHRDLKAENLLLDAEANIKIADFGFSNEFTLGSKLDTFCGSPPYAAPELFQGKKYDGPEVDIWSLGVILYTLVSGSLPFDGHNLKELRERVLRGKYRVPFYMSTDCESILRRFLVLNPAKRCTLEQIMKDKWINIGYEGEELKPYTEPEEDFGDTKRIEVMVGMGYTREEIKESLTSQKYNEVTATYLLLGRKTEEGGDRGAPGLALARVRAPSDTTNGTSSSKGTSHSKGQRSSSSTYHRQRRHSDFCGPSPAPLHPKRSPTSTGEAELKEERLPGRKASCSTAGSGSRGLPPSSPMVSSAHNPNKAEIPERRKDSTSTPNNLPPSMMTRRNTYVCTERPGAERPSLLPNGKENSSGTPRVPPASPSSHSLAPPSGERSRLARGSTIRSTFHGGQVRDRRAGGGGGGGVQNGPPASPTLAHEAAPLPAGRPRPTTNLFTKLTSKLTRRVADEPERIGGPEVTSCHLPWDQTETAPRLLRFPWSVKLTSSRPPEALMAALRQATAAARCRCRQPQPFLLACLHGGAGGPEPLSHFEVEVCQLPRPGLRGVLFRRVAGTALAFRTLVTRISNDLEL
Sequence of 178 full-length kinases (Homo sapiens, UniProt P42685) (P42685 whole entry): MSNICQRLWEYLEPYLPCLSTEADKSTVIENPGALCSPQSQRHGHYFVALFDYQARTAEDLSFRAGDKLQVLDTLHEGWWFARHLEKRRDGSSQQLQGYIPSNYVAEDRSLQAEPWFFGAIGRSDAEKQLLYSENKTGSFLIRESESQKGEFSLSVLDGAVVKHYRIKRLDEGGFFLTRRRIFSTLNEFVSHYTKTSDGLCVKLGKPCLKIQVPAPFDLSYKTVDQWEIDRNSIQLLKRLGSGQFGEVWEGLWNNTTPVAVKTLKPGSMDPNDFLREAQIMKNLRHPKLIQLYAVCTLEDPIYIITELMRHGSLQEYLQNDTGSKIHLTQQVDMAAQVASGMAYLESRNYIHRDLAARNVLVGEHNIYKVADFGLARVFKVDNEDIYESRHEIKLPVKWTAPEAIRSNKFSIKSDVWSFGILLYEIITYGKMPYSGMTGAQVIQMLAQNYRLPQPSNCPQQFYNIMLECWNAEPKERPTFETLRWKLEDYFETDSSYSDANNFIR
Sequence of 178 full-length kinases (Homo sapiens, UniProt Q13237) (Q13237 whole entry): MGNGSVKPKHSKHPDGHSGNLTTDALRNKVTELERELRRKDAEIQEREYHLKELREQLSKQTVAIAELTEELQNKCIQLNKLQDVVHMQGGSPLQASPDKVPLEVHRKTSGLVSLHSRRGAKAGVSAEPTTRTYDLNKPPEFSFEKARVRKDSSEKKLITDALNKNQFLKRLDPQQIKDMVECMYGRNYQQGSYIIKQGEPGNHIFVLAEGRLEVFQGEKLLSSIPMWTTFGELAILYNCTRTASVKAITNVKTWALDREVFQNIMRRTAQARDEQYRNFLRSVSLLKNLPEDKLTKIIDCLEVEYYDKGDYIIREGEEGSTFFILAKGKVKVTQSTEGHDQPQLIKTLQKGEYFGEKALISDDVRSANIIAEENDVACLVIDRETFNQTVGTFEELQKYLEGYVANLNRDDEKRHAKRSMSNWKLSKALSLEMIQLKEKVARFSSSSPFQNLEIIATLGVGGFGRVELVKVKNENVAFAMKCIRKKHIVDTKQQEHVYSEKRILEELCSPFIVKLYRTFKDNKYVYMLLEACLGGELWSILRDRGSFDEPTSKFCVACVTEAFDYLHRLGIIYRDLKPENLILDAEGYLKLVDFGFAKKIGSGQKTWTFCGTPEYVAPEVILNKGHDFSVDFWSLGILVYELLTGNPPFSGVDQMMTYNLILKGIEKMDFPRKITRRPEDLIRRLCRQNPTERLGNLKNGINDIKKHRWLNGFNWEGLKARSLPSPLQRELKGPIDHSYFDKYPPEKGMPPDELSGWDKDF

C[C@@H](Oc1cc(-c2cnn(C3CCNCC3)c2)cnc1N)c1c(Cl)ccc(F)c1Cl [Crizotinib]
No Binding: Occupancy, % Replicate 2 [1] | Occupancy, % Replicate 2 [2] | Occupancy, % Replicate 1 [3] | Occupancy, % Replicate 2 [4] | Occupancy, % Replicate 1 ([5]; replicate 1) | Occupancy, % Replicate 2 ([5]; replicate 2) | Occupancy, % Replicate 2 [6] | Occupancy, % Replicate 1 [7] | Occupancy, % Replicate 2 [8] | Occupancy, % Replicate 1 [9] | Occupancy, % Replicate 2 [9] | Occupancy, % Replicate 2 [10] | Occupancy, % Replicate 1 [11] | Occupancy, % Replicate 2 [11] | Occupancy, % Replicate 2 [12] | Occupancy, % Replicate 1 [13] | Occupancy, % Replicate 1 ([14]; replicate 1) | Occupancy, % Replicate 2 ([14]; replicate 2) | Occupancy, % Replicate 2 [15] | Occupancy, % Replicate 1 [16] | Occupancy, % Replicate 2 [16] | Occupancy, % Replicate 1 [17] | Occupancy, % Replicate 1 [18] | Occupancy, % Replicate 2 [18] | Occupancy, % Replicate 2 [19]
